Data published in patent US20110112160A1, “TABLET COMPRISING EPROSARTAN MESYLATE” (LEK PHARMACEUTICALS D.D., priority 2008, published 2011).

Experiments:
[1] = Hygroscopicity and interconversion of forms at high relative humidity; format: physicochemical; details: at RH over 60%
Source text: Eprosartan mesylate is hygroscopic (at RH over 60%).

[2] = at pH 2; typically; cited from earlier work
Flowability = format: physicochemical; details: drug per se; with sticking on punches
intestinal epithelium = details: background art; cited from earlier work
[3] = background art; cited from earlier work
[4] = Physical stability, form of eprosartan mesylate by X-ray diffraction (XRD); format: physicochemical; details: at ambient temperature and humidity
Method: During the dry granulation processes using different excipients from the list above, physical stability of the eprosartan mesylate anhydrate was investigated. […] The final tablet form and placebo powder were analyzed by X-ray diffraction (XRD) pattern to confirm presence of anhydrous form of eprosartan mesylate.
Diffractograms were collected on X'Pert PRO MPD diffractometer using CuKα radiation. Data were recorded from 2 do 40°2θ; in steps of 0.033°2θ; with the integration times 50 s (routine testing) and from 4 do 20°2θ; in steps of 0.033°2θ; with the integration times 2000 s (to achieve lower LOD). The range for measurements with longer integration times was chosen according to the known diffractograms of eprosartan mesylate crystalline forms, which all have characteristic peaks in the carefully measured range between 4 and 20°2theta.

Row | Compound | hygroscopicity [1] | solubility [2] | flowability (Flowability) | permeability across the intestinal epithelium (intestinal epithelium) | bioavailability [3] | interconversion of form [1] | physical and chemical stability [4]
1 | CCCCc1ncc(/C=C(\Cc2cccs2)C(=O)O)n1Cc1ccc(C(=O)O)cc1.CS(=O)(=O)O [eprosartan mesylate, (E)-α-[2-n-butyl-1-[(4-carboxyphenyl)methyl]-1H-imidazol-5-yl]methylene-2-thiophenepropionic acid monomethanesulfonate] | hygroscopic | less than 0.1 mg/ml | below 0.15 g/sec | low permeability | 13% |  | 
2 | CCCCc1ncc(/C=C(\Cc2cccs2)C(=O)O)n1Cc1ccc(C(=O)O)cc1.CS(=O)(=O)O [Eprosartan mesylate in anhydrous form] |  |  |  |  |  | interconverts to eprosartan mesylate mono- and later to dihydrate | physically and chemically stable
